Assay results from patent US6667311B2, “Nitrogen substituted biaryl purine derivatives as potent antiproliferative agents” (Albany Molecular Research, Inc., priority 2001, dated 2003).

Legend:
Type in all cases: cell-based, human
SNB-75 = assay: NCI growth inhibition, SNB-75; conditions: SNB-75 (CNS)
SF-268 = assay: NCI growth inhibition, SF-268; conditions: SF-268 (CNS)
A498 = assay: NCI growth inhibition, A498; conditions: A498 (Renal)
CAKI-1 = assay: NCI growth inhibition, CAKI-1; conditions: CAKI-1 (Renal)
OVCAR-4 = assay: NCI growth inhibition, OVCAR-4; conditions: OVCAR-4 (Ovarian)
OVCAR-3 = assay: NCI growth inhibition, OVCAR-3; conditions: OVCAR-3 (Ovarian)
DU-145 = assay: NCI growth inhibition, DU-145; conditions: DU-145 (Prostate)
KM12 = assay: NCI growth inhibition, KM12; conditions: KM12 (Colon)
OVCAR-8 = assay: NCI growth inhibition, OVCAR-8; conditions: OVCAR-8 (Ovarian)
MOLT-4 = assay: NCI growth inhibition, MOLT-4; conditions: MOLT-4 (Leukemia)
M14 = assay: NCI growth inhibition, M14; conditions: M14 (Melanoma)
SK-MEL-2 = assay: NCI growth inhibition, SK-MEL-2; conditions: SK-MEL-2 (Melanoma)
786-0 = assay: NCI growth inhibition, 786-0; conditions: 786-0 (Renal)
UO-31 = assay: NCI growth inhibition, UO-31; conditions: UO-31 (Renal)
SN12C = assay: NCI growth inhibition, SN12C; conditions: SN12C (Renal)
HCC-2998 = assay: NCI growth inhibition, HCC-2998; conditions: HCC-2998 (Colon)
EKVX = assay: NCI growth inhibition, EKVX; conditions: EKVX (Non-Small Cell Lung)
K-562 = assay: NCI growth inhibition, K-562; conditions: K-562 (Leukemia)
SK-OV-3 = assay: NCI growth inhibition, SK-OV-3; conditions: SK-OV-3 (Ovarian)
TK-10 = assay: NCI growth inhibition, TK-10; conditions: TK-10 (Renal)
MDA-N = assay: NCI growth inhibition, MDA-N; conditions: MDA-N (Breast)
MDA-MB-435 = assay: NCI growth inhibition, MDA-MB-435; conditions: MDA-MB-435 (Breast)
SF-539 = assay: NCI growth inhibition, SF-539; conditions: SF-539 (CNS)
SNB-19 = assay: NCI growth inhibition, SNB-19; conditions: SNB-19 (CNS)
HCT-116 = assay: NCI growth inhibition, HCT-116; conditions: HCT-116 (Colon)
COLO 205 = assay: NCI growth inhibition, COLO 205; conditions: COLO 205 (Colon)
SF-295 = assay: NCI growth inhibition, SF-295; conditions: SF-295 (CNS)
UACC-62 = assay: NCI growth inhibition, UACC-62; conditions: UACC-62 (Melanoma)
SR = assay: NCI growth inhibition, SR; conditions: SR (Leukemia)
HT29 = assay: NCI growth inhibition, HT29; conditions: HT29 (Colon)
HS 578T = assay: NCI growth inhibition, HS 578T; conditions: HS 578T (Breast)
SK-MEL-5 = assay: NCI growth inhibition, SK-MEL-5; conditions: SK-MEL-5 (Melanoma)
SK-MEL-28 = assay: NCI growth inhibition, SK-MEL-28; conditions: SK-MEL-28 (Melanoma)
MCF7 = assay: NCI growth inhibition, MCF7; conditions: MCF7 (Breast)
HOP-92 = assay: NCI growth inhibition, HOP-92; conditions: HOP-92 (Non-Small Cell Lung)
NCI-H522 = assay: NCI growth inhibition, NCI-H522; conditions: NCI-H522 (Non-Small Cell Lung)
SW-620 = assay: NCI growth inhibition, SW-620; conditions: SW-620 (Colon)
T-47D = assay: NCI growth inhibition, T-47D; conditions: T-47D (Breast)
RXF 393 = assay: NCI growth inhibition, RXF 393; conditions: RXF 393 (Renal)
RPMI-8226 = assay: NCI growth inhibition, RPMI-8226; conditions: RPMI-8226 (Leukemia)
U251 = assay: NCI growth inhibition, U251; conditions: U251 (CNS)
HL-60 (TB) = assay: NCI growth inhibition, HL-60 (TB); conditions: HL-60(TB) (Leukemia)
MALME-3M = assay: NCI growth inhibition, MALME-3M; conditions: MALME-3M (Melanoma)
BT-549 = assay: NCI growth inhibition, BT-549; conditions: BT-549 (Breast)
A549/ATCC = assay: NCI growth inhibition, A549/ATCC; conditions: A549/ATCC (Non-Small Cell Lung)

With CC(=O)N[C@H]1CC[C@H](Nc2nc(NCc3ccc(-c4ccccc4)nc3)c3ncn(C(C)C)c3n2)CC1 [Compound 87] the GI50 (SNB-75) was 12 nM, the GI50 (SF-268) was under 10 nM and the GI50 (A498) was 100 nM. For the same compound, the GI50 (CAKI-1) was 64 nM, the GI50 (OVCAR-4) was 48 nM and the GI50 (OVCAR-3) was 50 nM. It also gave a GI50 (DU-145) of 220 nM, a GI50 (KM12) of under 10 nM and a GI50 (OVCAR-8) of 33 nM. For the same compound, the GI50 (MOLT-4) was 20 nM, the GI50 (M14) was under 10 nM and the GI50 (SK-MEL-2) was 56 nM. For the same compound, the GI50 (786-0) was 47 nM, the GI50 (UO-31) was 16 nM and the GI50 (SN12C) was under 10 nM. The GI50 (HCC-2998) was under 10 nM, the GI50 (EKVX) was 81 nM and the GI50 (K-562) was 24 nM. The GI50 (SK-OV-3) was 350 nM, the GI50 (TK-10) was 29 nM and the GI50 (MDA-N) was 14 nM. It also gave a GI50 (MDA-MB-435) of under 10 nM, a GI50 (SF-539) of 81 nM and a GI50 (SNB-19) of 38 nM. It also gave a GI50 (HCT-116) of 37 nM, a GI50 (COLO 205) of under 10 nM and a GI50 (SF-295) of 47 nM. For the same compound, the GI50 (UACC-62) was 45 nM, the GI50 (SR) was 32 nM and the GI50 (HT29) was under 10 nM. It also gave a GI50 (HS 578T) of under 10 nM, a GI50 (SK-MEL-5) of 28 nM and a GI50 (SK-MEL-28) of under 10 nM. For the same compound, the GI50 (MCF7) was 40 nM, the GI50 (HOP-92) was 88 nM and the GI50 (NCI-H522) was under 10 nM. For the same compound, the GI50 (SW-620) was under 10 nM, the GI50 (T-47D) was 48 nM and the GI50 (RXF 393) was 11 nM. For the same compound, the GI50 (RPMI-8226) was under 10 nM, the GI50 (U251) was 28 nM and the GI50 (HL-60 (TB)) was under 10 nM. It also gave a GI50 (MALME-3M) of 24 nM, a GI50 (BT-549) of 20 nM and a GI50 (A549/ATCC) of under 10 nM.
